57 molecules from US7427608B2, “Protection against and treatment of hearing loss” (The Research Foundation of State University of New York, priority 2001, dated 2008) can be followed below.

Experiment [1] concerns the target Epidermal Growth Factor Receptor Tyrosine Kinase (EGFRTK) (Homo sapiens, UniProt P00533). Briefly: Inhibition of EGFRTK. Type of experiment: biochemical. The conditions noted are these: compound at 10 micromolar. The source says:
(§1) Blanks for a particular enzyme indicate that inhibition was not found.

Experiment [2] has as its target p55 fyn (Homo sapiens, UniProt P06241). Briefly: Inhibition of p55 fyn. The note with it: compound at 10 micromolar. The class given is biochemical.
Text: as §1

Experiment [3] deals with T1, protein tyrosine phosphatase 1B (PTP-1B) (Homo sapiens, UniProt P18031).
T1 sequence (P18031 1-435): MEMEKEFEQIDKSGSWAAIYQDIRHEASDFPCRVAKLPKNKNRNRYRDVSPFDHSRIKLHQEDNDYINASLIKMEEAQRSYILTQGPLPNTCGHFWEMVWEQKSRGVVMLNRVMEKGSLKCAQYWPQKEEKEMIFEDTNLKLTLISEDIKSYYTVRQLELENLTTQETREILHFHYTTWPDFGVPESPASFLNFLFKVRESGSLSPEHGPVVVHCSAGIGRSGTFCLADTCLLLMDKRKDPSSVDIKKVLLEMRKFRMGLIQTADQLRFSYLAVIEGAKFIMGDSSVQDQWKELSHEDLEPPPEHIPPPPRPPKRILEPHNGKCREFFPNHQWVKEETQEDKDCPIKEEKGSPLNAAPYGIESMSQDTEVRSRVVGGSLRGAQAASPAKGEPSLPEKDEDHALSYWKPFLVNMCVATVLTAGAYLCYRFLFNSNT
Nature of the experiment: Inhibition of PTP-1B. The class given is biochemical. The conditions noted are these: compound at 10 micromolar.
Text: as §1

The subject of experiment [4] is human lung cancer cell line H460. Briefly: Inhibition of growth of human lung cancer cell line H460. The class given is cell-based. The conditions noted are these: NCI-H460, 72 hours, total protein/well. The text has this:
The results are in Table 2, below.

In experiment [5] the target is p56 lck (Homo sapiens, UniProt P06239). Nature of the experiment: Inhibition of p56 lck. Type of experiment: biochemical. The note with it: compound at 10 micromolar.
Text: as §1

The target of experiment [6] is full length human purified recombinant pp60^c-src (Homo sapiens, UniProt P12931). Nature of the experiment: Inhibition of isolated Src (Lai et al. 1998 assay, intracellular-mimetic conditions). The class given is biochemical.
Description: Subsequent to synthesis, several of the above compounds were tested for inhibition of the growth of human lung cancer cell line H460 and inhibition of isolated Src.

The structures appear in SMILES notation. Where only a bound is given, the exact number is not on record here.

Chain of p55 fyn (P06241 whole entry): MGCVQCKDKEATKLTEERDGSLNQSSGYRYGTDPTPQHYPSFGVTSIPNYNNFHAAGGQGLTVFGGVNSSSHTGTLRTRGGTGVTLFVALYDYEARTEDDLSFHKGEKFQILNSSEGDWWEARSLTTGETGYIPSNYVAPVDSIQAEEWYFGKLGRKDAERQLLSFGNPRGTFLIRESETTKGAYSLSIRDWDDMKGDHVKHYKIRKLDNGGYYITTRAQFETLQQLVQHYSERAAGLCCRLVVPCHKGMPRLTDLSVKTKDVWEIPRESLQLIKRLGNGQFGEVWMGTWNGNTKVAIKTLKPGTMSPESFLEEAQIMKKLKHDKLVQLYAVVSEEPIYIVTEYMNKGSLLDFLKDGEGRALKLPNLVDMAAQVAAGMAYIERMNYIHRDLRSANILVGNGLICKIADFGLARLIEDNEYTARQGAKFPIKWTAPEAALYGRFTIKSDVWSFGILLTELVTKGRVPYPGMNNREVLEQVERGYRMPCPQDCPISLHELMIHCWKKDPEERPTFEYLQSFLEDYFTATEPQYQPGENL
Chain of p56 lck (P06239 whole entry, species assumed): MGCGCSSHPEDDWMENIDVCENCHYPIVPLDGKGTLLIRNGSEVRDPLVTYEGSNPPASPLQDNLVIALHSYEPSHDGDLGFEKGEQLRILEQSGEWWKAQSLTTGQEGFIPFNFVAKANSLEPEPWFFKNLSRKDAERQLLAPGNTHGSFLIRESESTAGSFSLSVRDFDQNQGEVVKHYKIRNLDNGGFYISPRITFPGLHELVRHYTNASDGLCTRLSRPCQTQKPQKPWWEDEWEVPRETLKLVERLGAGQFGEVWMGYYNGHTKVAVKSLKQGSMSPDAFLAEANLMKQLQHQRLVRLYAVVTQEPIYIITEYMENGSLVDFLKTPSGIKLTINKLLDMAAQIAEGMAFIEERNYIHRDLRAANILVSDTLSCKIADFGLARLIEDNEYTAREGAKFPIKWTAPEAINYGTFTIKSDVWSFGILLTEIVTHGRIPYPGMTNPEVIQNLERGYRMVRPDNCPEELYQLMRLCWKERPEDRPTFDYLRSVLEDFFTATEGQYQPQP
Chain of Epidermal Growth Factor Receptor Tyrosine Kinase (EGFRTK) (P00533 25-1210): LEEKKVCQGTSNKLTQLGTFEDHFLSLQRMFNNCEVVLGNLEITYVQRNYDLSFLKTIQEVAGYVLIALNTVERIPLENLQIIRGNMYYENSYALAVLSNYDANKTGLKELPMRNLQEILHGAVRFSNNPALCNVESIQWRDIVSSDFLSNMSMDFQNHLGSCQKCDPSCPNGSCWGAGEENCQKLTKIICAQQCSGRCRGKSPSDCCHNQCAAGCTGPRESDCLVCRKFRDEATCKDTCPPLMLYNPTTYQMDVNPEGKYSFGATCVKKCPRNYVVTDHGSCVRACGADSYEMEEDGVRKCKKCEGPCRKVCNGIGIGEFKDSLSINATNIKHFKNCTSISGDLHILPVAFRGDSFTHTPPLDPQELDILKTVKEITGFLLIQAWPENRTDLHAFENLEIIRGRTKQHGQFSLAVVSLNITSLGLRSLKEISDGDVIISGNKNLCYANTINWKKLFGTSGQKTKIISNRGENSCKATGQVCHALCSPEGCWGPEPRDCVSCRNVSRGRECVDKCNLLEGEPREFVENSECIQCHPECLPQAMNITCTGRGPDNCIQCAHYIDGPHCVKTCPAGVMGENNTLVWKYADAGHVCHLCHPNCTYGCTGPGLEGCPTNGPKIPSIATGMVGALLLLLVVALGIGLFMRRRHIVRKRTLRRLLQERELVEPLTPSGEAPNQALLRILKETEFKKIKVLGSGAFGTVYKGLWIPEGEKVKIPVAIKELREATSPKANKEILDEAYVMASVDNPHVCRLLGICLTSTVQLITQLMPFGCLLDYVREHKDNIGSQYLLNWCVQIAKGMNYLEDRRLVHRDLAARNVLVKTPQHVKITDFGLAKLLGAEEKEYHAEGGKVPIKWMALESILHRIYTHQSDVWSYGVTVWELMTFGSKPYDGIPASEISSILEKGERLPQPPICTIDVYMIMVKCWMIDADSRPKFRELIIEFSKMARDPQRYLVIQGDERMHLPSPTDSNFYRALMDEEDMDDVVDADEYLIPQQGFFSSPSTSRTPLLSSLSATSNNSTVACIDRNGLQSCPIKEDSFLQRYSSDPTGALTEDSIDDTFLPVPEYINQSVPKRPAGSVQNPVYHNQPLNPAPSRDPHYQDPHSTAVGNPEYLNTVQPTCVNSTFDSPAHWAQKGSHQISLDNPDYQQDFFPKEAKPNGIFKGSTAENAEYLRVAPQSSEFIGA
Chain of full length human purified recombinant pp60^c-src (P12931 whole entry): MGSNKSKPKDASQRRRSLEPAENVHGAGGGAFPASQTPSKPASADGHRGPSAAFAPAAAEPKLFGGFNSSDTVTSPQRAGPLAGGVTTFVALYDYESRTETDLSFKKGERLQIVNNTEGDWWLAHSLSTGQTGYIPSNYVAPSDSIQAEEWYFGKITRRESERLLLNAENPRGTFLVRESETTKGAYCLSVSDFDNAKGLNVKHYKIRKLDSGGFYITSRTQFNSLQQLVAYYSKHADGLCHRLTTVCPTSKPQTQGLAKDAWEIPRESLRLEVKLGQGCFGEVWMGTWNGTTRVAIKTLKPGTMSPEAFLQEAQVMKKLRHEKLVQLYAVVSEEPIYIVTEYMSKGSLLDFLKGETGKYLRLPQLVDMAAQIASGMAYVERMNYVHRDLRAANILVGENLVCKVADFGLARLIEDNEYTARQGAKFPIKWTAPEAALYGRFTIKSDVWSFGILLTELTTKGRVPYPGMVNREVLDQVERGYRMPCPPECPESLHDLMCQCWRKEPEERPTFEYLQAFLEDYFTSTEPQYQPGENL

As usually defined, the inhibition is how much of the control response was suppressed. As to `COc1cccc([C@H](C)NC(=O)c2cc3cc(F)ccc3[nH]2)c1` [Compound 1aa], the inhibition at 10 µM was 12% in experiment [1] and 10% in experiment [2].

For the molecule `O=C(NCc1cc(C(F)(F)F)ccc1F)c1cc2cc(F)ccc2[nH]1` [Compound 1aaa], in experiment [3], the inhibition at 10 µM was determined as 12%.

In general, IC50 refers to the concentration that inhibits the measured activity by half. In experiment [4], `O=C(NCc1ccccc1)c1cc2cc(F)ccc2[nH]1` [Compound 1bb] displayed a half-inhibitory concentration (IC50) of 82 ± 3.5 µM. In experiment [1], the inhibition at 10 µM was determined as 19%.

In turn, `O=C(NCc1ccccc1F)c1cc2cc(F)ccc2[nH]1` [Compound 1bbb] displayed an IC50 in experiment [4] of more than 100 µM.

In experiment [4], `O=C(N[C@H](c1ccccc1)[C@H](O)c1ccccc1)c1cc2cc(F)ccc2[nH]1` [Compound 1cc] displayed an IC50 of 30 ± 0.66 µM. This molecule also showed an inhibition at 10 µM in experiment [1] of 19%.

In experiment [4], `COc1ccc(NC(=O)c2cc3cc(F)ccc3[nH]2)cc1CO` [Compound 1cccc] came in with an IC50 of more than 100 µM. Also, the inhibition at 10 µM stood at 20% in experiment [3] and 19% in experiment [1].

As to `O=C(N[C@@H](c1ccccc1)[C@@H](O)c1ccccc1)c1cc2cc(F)ccc2[nH]1` [Compound 1dd], the IC50 in experiment [4] was determined as 33 ± 0.78 µM. 10 µM produced 41% inhibition in experiment [1].

In the case of `O=C(NCc1cc(O)cc(OCc2ccccc2)c1)c1cc2cc(F)ccc2[nH]1` [Compound 1dddd], in experiment [3], the inhibition at 10 µM was determined as 16%.

As for `COc1ccc(CNC(=O)c2cc3cc(F)ccc3[nH]2)cc1` [Compound 1ee], in experiment [1], the inhibition at 10 µM worked out at 16%.

`O=C(NCc1cccc(I)c1)c1cc2cc(F)ccc2[nH]1` [Compound 1ff]: the inhibition at 10 µM in experiment [1] came out at 24%.

With `Cc1ccccc1CNC(=O)c1cc2cc(F)ccc2[nH]1` [Compound 1ffff], in experiment [1], at 10 µM the inhibition was 12%.

With `CCCN(CCC)C(=O)c1cc2cc(F)ccc2[nH]1` [Compound 1g], in experiment [2], the inhibition at 10 µM amounted to 19%.

In experiment [1], `O=C(NCc1ccc(O)c(O)c1)c1cc2cc(F)ccc2[nH]1` [Compound 1gggg] showed an inhibition at 10 µM of 25%.

In experiment [3], `COc1cc(CNC(=O)c2cc3cc(F)ccc3[nH]2)cc(OC)c1` [Compound 1hhhh] gave an inhibition at 10 µM of 17%.

Consider `O=C(NCc1cc(OCc2ccccc2)cc(OCc2ccccc2)c1)c1cc2cc(F)ccc2[nH]1` [Compound 1iiii], for which the inhibition at 10 µM in experiment [1] came out at 12%.

In turn, `O=C(NCc1cccc(C(F)(F)F)c1)c1cc2cc(F)ccc2[nH]1` [Compound 1jj] had an inhibition at 10 µM in experiment [2] of 18%.

In experiment [3], `O=C(NCc1ccc(OCc2ccccc2)c(O)c1)c1cc2cc(F)ccc2[nH]1` [Compound 1jjjj] yielded an inhibition at 10 µM of 15%.

Consider `O=C(Nc1ccc(Oc2ccccc2)cc1)c1cc2cc(F)ccc2[nH]1` [Compound 1k], for which 10 µM produced 13% inhibition in experiment [2].

`O=C(NCc1ccc(Br)cc1)c1cc2cc(F)ccc2[nH]1` [Compound 1kkkk] had an inhibition at 10 µM in experiment [1] of 30%.

`O=C(NCc1cc(F)cc(C(F)(F)F)c1)c1cc2cc(F)ccc2[nH]1` [Compound 1mmm] showed an inhibition at 10 µM in experiment [2] of 14%.

For `O=C(NCc1ccc([N+](=O)[O-])cc1)c1cc2cc(F)ccc2[nH]1` [Compound 1mmmm], testing at 10 µM in experiment [2] gave an inhibition of 29%.

Consider `O=C(Nc1ccccc1O)c1cc2cc(F)ccc2[nH]1` [Compound 1n], for which the inhibition at 10 µM in experiment [5] amounted to 12%.

Take `CCCOc1ccc(CNC(=O)c2cc3cc(F)ccc3[nH]2)cc1O` [Compound 1nnnn]: the inhibition at 10 µM in experiment [1] is 17%; in experiment [2], 11%.

With `O=C(Nc1ccc(CO)cc1)c1cc2cc(F)ccc2[nH]1` [Compound 1oo], 10 µM produced 17% inhibition in experiment [2].

On to `O=C(NCc1ccc(CO)cc1)c1cc2cc(F)ccc2[nH]1` [Compound 1oooo], for which the IC50 in experiment [4] was determined as 74 ± 2.7 µM. Moreover, the inhibition at 10 µM in experiment [1] stood at 33%; in experiment [5] it was 10%.

Take `COc1cc(CNC(=O)c2cc3cc(F)ccc3[nH]2)ccc1OCc1ccccc1` [Compound 1qqq]: the inhibition at 10 µM in experiment [2] was determined as 11%.

`O=C(NCCCCCCO)c1cc2cc(F)ccc2[nH]1` [Compound 1qqqq] had an inhibition at 10 µM in experiment [1] of 18%.

Take `O=C(Nc1cc(O)cc(O)c1)c1cc2cc(F)ccc2[nH]1` [Compound 1r]: 10 µM produced 11% inhibition in experiment [5].

Turning to `COc1cc(OC)c(CNC(=O)c2cc3cc(F)ccc3[nH]2)c(OC)c1` [Compound 1rr], in experiment [5], the inhibition at 10 µM came out at 12%.

As to `O=C(NCc1ccc(Cl)cc1)c1cc2cc(F)ccc2[nH]1` [Compound 1rrr], in experiment [2], the inhibition at 10 µM worked out at 15%.

`O=C(NCc1ccc(Cl)cc1Cl)c1cc2cc(F)ccc2[nH]1` [Compound 1ss]: at 10 µM the inhibition in experiment [3] was 12%.

Regarding `Cc1cc(C)cc(NC(=O)c2cc3cc(F)ccc3[nH]2)c1` [Compound 1t], in experiment [2], testing at 10 µM gave an inhibition of 11%.

Take `O=C(NCCc1c[nH]c2ccccc12)c1cc2cc(F)ccc2[nH]1` [Compound 1u]: the inhibition at 10 µM in experiment [2] was found to be 10%.

As for `O=C(NCc1ccc(F)cc1)c1cc2cc(F)ccc2[nH]1` [Compound 1uuu], the inhibition at 10 µM in experiment [3] came to 13%; in experiment [2], 16%.

In experiment [2], `O=C(c1cc2cc(F)ccc2[nH]1)N1CCOCC1` [Compound 1w] registered an inhibition at 10 µM of 10%.

`Cc1cccc(Cl)c1CNC(=O)c1cc2cc(F)ccc2[nH]1` [Compound 1xx] returned an inhibition at 10 µM in experiment [2] of 14%.

In experiment [3], `O=C(Nc1ccccc1CO)c1cc2cc(F)ccc2[nH]1` [Compound 1xxx] had an inhibition at 10 µM of 12%.

On to `O=C(NCc1ccccc1Cl)c1cc2cc(F)ccc2[nH]1` [Compound 1yy], for which the inhibition at 10 µM was 10% in experiment [3] and 12% in experiment [2].

On to `O=C(Nc1cccc(CO)c1)c1cc2cc(F)ccc2[nH]1` [Compound 1yyy], for which the IC50 in experiment [4] turned out to be 104 ± 10 µM. In experiment [1], this molecule returned an inhibition at 10 µM of 11%.

In experiment [4], `O=C(NCc1cccc(F)c1)c1cc2cc(F)ccc2[nH]1` [Compound 1z] displayed an IC50 of 15 ± 1.6 µM. This molecule also gave an inhibition at 10 µM in experiment [1] of 26%.

Consider `O=C(NCC1(O)CCCCC1)c1[nH]c2ccc(F)cc2c1-c1ccccc1` [Compound 2b], for which the inhibition at 10 µM in experiment [1] is 19%; in experiment [2], 13%.

In experiment [1], `CCCOc1ccc(NC(=O)c2[nH]c3ccc(F)cc3c2-c2ccccc2)cc1CO` [Compound 2d] gave an inhibition at 10 µM of 23%.

`O=C(Nc1ccc(OCc2ccccc2)c(CO)c1)c1[nH]c2ccc(F)cc2c1-c1ccccc1` [Compound 2e] came in with an inhibition at 10 µM in experiment [1] of 10%.

`COc1ccc(NC(=O)c2[nH]c3ccc(F)cc3c2-c2ccccc2)cc1CO` [Compound 2f] gave a concentration for half-maximal inhibition (IC50) in experiment [4] of 13 ± 0.46 µM. Besides, the inhibition at 10 µM in experiment [1] was determined as 18%; in experiment [2] it was 11%.

For the molecule `O=C(Nc1cccc(O)c1)c1cc2ccc(O)cc2cc1O` [Compound 2f], the IC50 in experiment [6] (Example 3 hydroxynaphthalene series, 200 μM ATP, read-out: IC50) was determined as 16 µM.

Consider `O=C(NCc1cccc(F)c1)c1[nH]c2ccc(F)cc2c1-c1ccccc1` [Compound 2g], for which, in experiment [4], the 50% inhibitory concentration (IC50) amounted to 13 ± 0.56 µM.

The molecule `O=C(NCc1ccc(Cl)cc1)c1[nH]c2ccc(F)cc2c1-c1ccccc1` [Compound 2gg] came in with an inhibition at 10 µM in experiment [3] of 12%.

The molecule `O=C(NCc1ccc(F)cc1C(F)(F)F)c1[nH]c2ccc(F)cc2c1-c1ccccc1` [Compound 2hh] had an inhibition at 10 µM in experiment [1] of 12%.

With `O=C(NCc1ccc(C(F)(F)F)cc1)c1[nH]c2ccc(F)cc2c1-c1ccccc1` [Compound 2j], in experiment [1], the inhibition at 10 µM was determined as 20%.

For the molecule `O=C(NCc1ccc([N+](=O)[O-])cc1)c1[nH]c2ccc(F)cc2c1-c1ccccc1` [Compound 2kk], 10 µM produced 24% inhibition in experiment [2].

`O=C(NCc1cc(Br)ccc1F)c1[nH]c2ccc(F)cc2c1-c1ccccc1` [Compound 2ll] came in with an inhibition at 10 µM in experiment [1] of 10%.

On to `O=C(NCc1ccc(F)cc1Cl)c1[nH]c2ccc(F)cc2c1-c1ccccc1` [Compound 2o], for which the inhibition at 10 µM in experiment [2] stood at 12%.

For `O=C(NCc1ccccc1F)c1[nH]c2ccc(F)cc2c1-c1ccccc1` [Compound 2s], the half-inhibitory concentration (IC50) in experiment [4] came out at 26 ± 0.34 µM. Besides, the values for the inhibition at 10 µM in experiment [1], in experiment [5] and in experiment [2] were 33%, 10% and 11%, respectively.

In the case of `O=C(NCc1cc(C(F)(F)F)cc(C(F)(F)F)c1)c1[nH]c2ccc(F)cc2c1-c1ccccc1` [Compound 2w], in experiment [3], at 10 µM the inhibition was 12%.

The molecule `O=C(NCc1cc(F)cc(F)c1)c1[nH]c2ccc(F)cc2c1-c1ccccc1` [Compound 2y] gave an inhibition at 10 µM in experiment [1] of 20%.

On to `O=C(NCc1cccc(O)c1)c1[nH]c2ccc(F)cc2c1-c1ccccc1` [Compound 3q], for which, in experiment [4], the midpoint of inhibition, the IC50, lay at 30 ± 0.34 µM.

Regarding `N=c1oc2c(O)cccc2cc1C(=O)Nc1cccc(O)c1` [Iminochromene 9TA, iminochromene 9TA, reference compound], the “% Inhibition at 100 μM (std. dev.)” value in experiment [6] (Example 3 hydroxynaphthalene series and published inhibitors, 100 μM inhibitor, 198 μM ATP) was 30 (+/−15) %.
